Test results: ChEMBL document CHEMBL4476871, “SULFAMIDE AND SULFAMATE INHIBITORS OF hHint1” (2018)
pIC50, pKd: −log10 of the molar value.

What was measured:
[1] = test system: Mus musculus; assay: Suppression of morphine-induced analgesic tolerance in ICR mouse model of spared nerve injury-induced neuropathic pain assessed as reduction in mechanical hypersensitivity administered intrathecally for 3 days prior to morphine challenge on day 4 by Von Frey test; assay type: functional; details: central
[2] = test system: Mus musculus; assay: Effect on spared nerve injury-induced ICR mouse model of neuropathic pain administered intrathecally for 3 days by Von Frey test; assay type: functional; details: central, 72 h
[3] = Solubility of the compound in DMSO; assay type: physicochemical
[4] = test system: Mus musculus; assay: Suppression of morphine-induced analgesic tolerance in ICR mouse model of spared nerve injury-induced neuropathic pain assessed as reduction in mechanical hypersensitivity administered intrathecally for 3 days prior to morphine challenge on day 4 by Von Frey test relative to control; assay type: functional
[5] = test system: Mus musculus; assay: Effect on spared nerve injury-induced ICR mouse model of neuropathic pain administered intrathecally for 3 days by Von Frey test relative to control; assay type: functional
[6] = biological target: T1, Adenosine 5'-monophosphoramidase HINT1 (Homo sapiens, UniProt P49773); assay: Binding affinity to full-length human N-terminal His6-tagged Hint1 expressed in Escherichia coli Rosetta 2 pLysS cells by isothermal titration calorimetry
T1 sequence (P49773 whole entry): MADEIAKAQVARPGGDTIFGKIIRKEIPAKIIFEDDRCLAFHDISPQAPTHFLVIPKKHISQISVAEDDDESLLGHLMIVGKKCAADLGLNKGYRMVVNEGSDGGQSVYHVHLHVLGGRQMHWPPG

[7] = biological target: T1, Adenosine 5'-monophosphoramidase HINT1; assay: Inhibition of human N-terminal His6-tagged Hint1 expressed in Escherichia coli Rosetta 2 pLysS cells by fluorescence assay
[8] = Solubility of the compound in water; assay type: physicochemical; details: buffer
[9] = Aqueous solubility of the compound; assay type: physicochemical; details: buffer

solubility [3]	pKd [6]	Structure (SMILES)	also measured
Soluble	–	Nc1nc2c(ncn2[C@@H]2O[C@H](COC(=O)NCCc3c[nH]c4ccccc34)[C@@H](O)[C@H]2O)c(=O)[nH]1	ED50 [1]: 2.6 mg/kg; ED50 [2]: 2.3 mg/kg; fold change (FC) [4]: 0.8; fold change (FC) [5]: 0.7
–	4.17	Nc1nc2c(ncn2[C@@H]2O[C@H](COP(=O)(O)O)[C@@H](O)[C@H]2O)c(=O)[nH]1	–
–	–	Nc1ncnc2c1ncn2[C@@H]1O[C@H](CNS(=O)(=O)NC(=O)CCCC[C@@H]2SC[C@@H]3NC(=O)N[C@@H]32)[C@@H](O)[C@H]1O	pIC50 [7]: 4.59
Soluble	5.46	Nc1nc2c(ncn2[C@@H]2O[C@H](COC(=O)NCCc3c[nH]cn3)[C@@H](O)[C@H]2O)c(=O)[nH]1	–
Soluble	5.61	CCNC(=O)OC[C@H]1O[C@@H](n2cnc3c(N)nc(N)nc32)[C@H](O)[C@@H]1O	–
–	–	Nc1nc2c(ncn2[C@@H]2O[C@H](CSP(=O)(O)NCCc3c[nH]c4ccccc34)[C@@H](O)[C@H]2O)c(=O)[nH]1	solubility [8]: Soluble
–	5.28	Nc1nc2c([C@@H]3O[C@H](COS(=O)(=O)NC(=O)CCc4c[nH]c5ccccc45)[C@@H](O)[C@H]3O)scc2c(=O)[nH]1	solubility [8]: Soluble
–	–	Nc1nc2c(ncn2[C@@H]2O[C@H](CNS(=O)(=O)NC(=O)CCc3c[nH]c4ccccc34)[C@@H](O)[C@H]2O)c(=O)[nH]1	solubility [9]: Soluble
Soluble	6.00	Nc1nc(N)c2ncn([C@@H]3O[C@H](COC(=O)Nc4ccccc4)[C@@H](O)[C@H]3O)c2n1	–
Soluble	4.33	CCN(CC)C(=O)OC[C@H]1O[C@@H](n2cnc3c(=O)[nH]c(N)nc32)[C@H](O)[C@@H]1O	–
–	–	Nc1nc2c(ncn2[C@@H]2O[C@H](COP(=O)(O)NCCc3c[nH]c4ccccc34)[C@@H](O)[C@H]2O)c(=O)[nH]1	solubility [9]: Soluble
Insoluble	5.09	Nc1nc2c(ncn2[C@@H]2O[C@H](COC(=O)NCc3ccccc3)[C@@H](O)[C@H]2O)c(=O)[nH]1	–
–	–	O=C(CCc1c[nH]c2ccccc12)NS(=O)(=O)OC[C@H]1O[C@@H](n2cnc3c2ncn2ccnc32)[C@@H](O)C1O (stereo partly specified)	ED50 [1]: 4.6 mg/kg; ED50 [2]: 3.6 mg/kg; solubility [9]: Soluble
–	–	Nc1nc2c(ncn2C2OC(COS(=O)(=O)NC(=O)CCc3c[nH]c4ccccc34)C(O)C2O)c(=O)[nH]1 (single isomer, unassigned)	solubility [9]: Soluble
